Source: US20090028820A1, “Antiviral Agent” (MITSUBISHI TANABE PHARMA CORPORATION, priority 2005, published 2009)

Experiments:
[1] = tested on: HCV-replicon cell clone #5-15 derived from Huh7; assay: Growth of HCV-replicon cell strain (Cell Titer 96 Aqueous One Solution Cell Proliferation Assay, absorbance 490 nm); format: cell-based, human; details: HGF 0, 10, 100 ng/ml; IFNα 0, 0.1, 0.3 IU/ml; 48 hours
Protocol: To determine whether or not the decreases in the replication of HCV-replicons observed in Example 1 were attributable to the decrease in the cell count itself, the following experiment was performed.
The clone #5-15 was suspended in Dulbecco's Eagle's MEM medium containing 2% fetal bovine serum, and seeded on a 96-well plate at 1.5×10^4 cells/100 μl/well. As blank, wells added with a medium alone was prepared without seeding cells (Day 0). After culture overnight in a humid incubator at 37° C. under 5% CO2 gas, 50 μl each of human recombinant IFNα (BIOMEDICAL LABORATORIES, Cat. No. 11105-1, lot No. #2122) and/or human recombinant HGF (produced in-house, Lot No. 920629) was added to each well. The final concentrations of IFNα were 0, 0.1 and 0.3 international unit (IU)/ml, the final concentrations of HGF were 0, 10 and 100 ng/ml, and the final volume was adjusted to 200 μl for all the wells. Three wells (triplicate) were prepared for each sample (Day 1). After culture for 48 hours, the number of cells was measured by Cell Titer 96 Aqueous One Solution Cell Proliferation Assay (Promega, Lot #171755), which is a type of cell growth assay kit. The measurement was performed according to the manual of the assay kit. […] Then, the plate was incubated for one hour in a humid incubator containing 5% CO2 set at 37° C., and then measured at absorbance 490 nm by using a 96-well plate reader.

HCV-replicon = assay: Inhibition of HCV-replicon replication in HCV-replicon cells (quantitative PCR of replicon RNA); format: cell-based, Hepatitis C virus; details: for inhibition of replication of the HCV-replicon: HGF alone, clone #5-15, 48 hours
Protocol: As a cell system for in vitro replication of HCV, an HCV-replicon cell clone #5-15 derived from the human liver cancer cell strain Huh7 was used (purchased from ReBLikon GmbH). The clone #5-15 was suspended in the Dulbecco's Eagle's MEM medium containing 2% fetal bovine serum, and seeded on a 96-well plate at 1.5×10^4 cells/100 μl/well. As blank, wells added with the medium alone was prepared without seeding the cells (Day 0). After culture overnight in a humid incubator at 37° C. under 5% CO2 gas, 50 μl each of human recombinant IFNα (BIOMEDICAL LABORATORIES, Cat. No. 11105-1, lot No. #2122) and/or human recombinant HGF (produced in-house, Lot No. 920629) was added to each well. The final concentrations of IFNα were 0, 0.1 and 0.3 international unit (IU)/ml, the final concentrations of HGF were 0, 10 and 100 ng/ml, and the final volume was adjusted to 200 μl for all the wells. Three wells (triplicate) were prepared for each sample (Day 1). After culture for 48 hours, total RNA was extracted from each well by using ABI-PRIZM 6100 Nucleic Acid PrepStation (Applied Biosystems). Extraction was performed according to the operation manual of the apparatus. The solution of the extracted RNA was stored at −80° C. (Day 3). The samples were thawed on the next day, and amounts of the HCV-replicon RNA were quantified by quantitative polymerase chain reaction (PCR). The quantification was performed according to the method of Takeuchi et al. (Takeuchi, T. et al., Gastroenterology, Vol. 116, 636-642 (1999)) by using ABI PRISM 7900 (Applied Biosystems).
RNAs used in the quantitative PCR for a standard curve were prepared by in vitro transcription using a vector obtained by ligating the gene of the HCV MKC-1A strain (Genbank accession No. D45172) to the downstream of the T7 promoter using T7 RiboMAX Express Large Scale RNA Production System (Promega), and it was confirmed that linearity was obtainable between 10^2 and 10^8 in the aforementioned quantitative PCR.

Hepatitis C virus = details: cited from earlier work
HCV-subgenomic replicon = details: Huh7 cells; cited from earlier work

HGF: human recombinant HGF (produced in-house, Lot No. 920629); hepatocyte growth factor
inhibition of growth of the HCV-replicon cell line [1]: not observed to inhibit the growth
effect of HGF on IFN-dependent inhibition of virus replication (HCV-replicon; HGF 10 ng/ml combined with IFN): synergistically enhanced
inhibition of replication of the HCV-replicon (HCV-replicon; 10 ng/ml): almost no inhibition of the replication was observed
inhibition of replication of the HCV-replicon (HCV-replicon; 100 ng/ml): inhibited the replication of the HCV-replicon
effect of HGF on inhibition of HCV-replicon replication by IFN (HCV-replicon; HGF combined with IFN 0.1 IU/ml): synergistically acted to inhibit the replication of HCV-replicons
effect of HGF on inhibition of HCV-replicon replication by IFN (HCV-replicon; HGF combined with IFN 0.3 IU/ml): effect of HGF was not observed

NC(=O)c1ncn([C@@H]2O[C@H](CO)[C@@H](O)[C@H]2O)n1 [Ribavirin, ribavirin]
efficacy against HCV (Hepatitis C virus; agent alone): ineffective

COc1ccc2c(O[C@@H]3C[C@H]4C(=O)N[C@]5(C(=O)O)C[C@H]5/C=C\CCCCC[C@H](NC(=O)OC5CCCC5)C(=O)N4C3)cc(-c3csc(NC(C)C)n3)nc2c1 [BILN-2061]
inhibition of replication of replicon RNA (HCV-subgenomic replicon): inhibits replication of replicon RNA
improvement of viremia (Hepatitis C virus; patients with hepatitis C): confirmed to improve viremia
